We go through 1 compound from the NIST ThermoML archive (doi:10.1016/j.jct.2017.01.004).

Numbers after ± are expanded uncertainties.

A short description of data set [1]: Molar enthalpy of transition or fusion. The following applies: Crystal; DSC.
The conditions of data set [2]: Crystal; DTA.

`O=C(O)CO` [2-hydroxyethanoic acid]: the “Molar enthalpy of transition or fusion” value in data set [1] came to 4.76 ± 0.263 kcal/mol. Also, the Normal melting temperature in data set [2] was 77.60 ± 1.1 °C.
